According to BindingDB's records for doi:10.1016/0960-894X(96)00221-1 (1996):
pIC50: −log10 of the molar value.

Experiment: Compound was evaluated for inhibition of tyrosinase enzyme.

Row | Structure (SMILES) | pIC50
1 | CC[C@H](C)[C@H](NC(=O)OCc1cc(=O)c(O)co1)C(=O)O | 4.81
2 | CC[C@H](C)[C@H](NC(=O)OCc1cc(=O)c(O)co1)C(=O)OCc1cc(=O)c(O)co1 | 6.15
3 | CC(C)[C@H](NC(=O)OCc1cc(=O)c(O)co1)C(=O)OCc1cc(=O)c(O)co1 [(S)-2-(5-Hydroxy-4-oxo-4H-pyran-2-ylmethoxycarbonylamino)-3-methyl-butyric acid 5-hydroxy-4-oxo-4H-pyran-2-ylmethyl ester] | 5.62
4 | CC(C)[C@H](NC(=O)OCc1cc(=O)c(O)co1)C(=O)O [(S)-2-(5-Hydroxy-4-oxo-4H-pyran-2-ylmethoxycarbonylamino)-3-methyl-butyric acid] | 4.78
5 | O=C(N[C@@H](Cc1ccccc1)C(=O)OCc1cc(=O)c(O)co1)OCc1cc(=O)c(O)co1 [(S)-2-(5-Hydroxy-4-oxo-4H-pyran-2-ylmethoxycarbonylamino)-3-phenyl-propionic acid 5-hydroxy-4-oxo-4H-pyran-2-ylmethyl ester] | 7.22
6 | O=C(N[C@@H](Cc1ccccc1)C(=O)O)OCc1cc(=O)c(O)co1 [(S)-2-(5-Hydroxy-4-oxo-4H-pyran-2-ylmethoxycarbonylamino)-3-phenyl-propionic acid] | 5.10
7 | CC(C)C[C@H](NC(=O)OCc1cc(=O)c(O)co1)C(=O)OCc1cc(=O)c(O)co1 [(S)-2-(5-Hydroxy-4-oxo-4H-pyran-2-ylmethoxycarbonylamino)-4-methyl-pentanoic acid 5-hydroxy-4-oxo-4H-pyran-2-ylmethyl ester] | 5.70
8 | CC(C)C[C@H](NC(=O)OCc1cc(=O)c(O)co1)C(=O)O [(S)-2-(5-Hydroxy-4-oxo-4H-pyran-2-ylmethoxycarbonylamino)-4-methyl-pentanoic acid] | 4.84
9 | C[C@H](NC(=O)OCc1cc(=O)c(O)co1)C(=O)OCc1cc(=O)c(O)co1 [(S)-2-(5-Hydroxy-4-oxo-4H-pyran-2-ylmethoxycarbonylamino)-propionic acid 5-hydroxy-4-oxo-4H-pyran-2-ylmethyl ester] | 5.52
10 | C[C@H](NC(=O)OCc1cc(=O)c(O)co1)C(=O)O [(S)-2-(5-Hydroxy-4-oxo-4H-pyran-2-ylmethoxycarbonylamino)-propionic acid] | 4.63
